Measurements: US10076504B2, “Glucagon antagonists” (Ligand Pharmaceuticals, Inc., priority 2014, dated 2018)
Structures can show the parent of a compound that is named as a salt.

Tests used:
human glucagon receptor = target: T1, human glucagon receptor (Homo sapiens, UniProt P47871); assay: Human glucagon receptor binding assay; conditions: displacement of [125I]glucagon from human glucagon receptor; read-out: Hu IC50
T1 construct: host or cells: Either human liver membranes or membranes of an unnamed recombinant cell line
Method: Compounds provided herein are dissolved in a suitable solvent (e.g., dimethylsulfoxide) at a concentration of 10 mM and then diluted in buffer (e.g., 50 mM Hepes, pH 7.4, 5 mM MgCl2, 1 mM CaCl2, and 0.2% BSA) to concentrations ranging from 1 nM to 100 μM. Compounds (20 μL/well) and [^125I]glucagon at the final concentration of 0.125 nM (20 μl/well) (Perkin Elmer) are added to and mixed in wells of a 96-well plate (Costar, Corning) containing 120 μL of buffer. Next, an appropriate aliquot of a membrane preparation containing the human glucagon receptor (isolated from human liver samples or obtained from a recombinant cell line) is added to the wells. The binding mixtures are incubated for 2 hrs at room temperature. In the meantime, a MultiScreen 96-well filter plate (Millipore) is treated with 200 μL of the buffer, which is vacuumed through the filter just before the binding mixtures are transferred to the plate. At the end of incubation, binding mixtures are transferred to the wells of the MultiScreen 96-well filter plate and filtered through by applying vacuum. The plate is washed once with 200 μL per well of the buffer, and the filters are dried and counted using a gamma counter.
The column marked “stereo” indicates whether the tested compound tested was racemic or the R-isomer (rac=racemic).

[1] = Single ascending dose study, pharmacokinetics; type: in vivo, human; conditions: 2 to 480 mg oral, human subjects
Method: (§1) Oral doses of IIIa were administered to normal healthy volunteers (NHV) and subjects with type 2 diabetes mellitus (T2DM). A single center, randomized, double-blind, placebo-controlled single ascending dose study was done in both NHV (n=48) and T2DM subjects (n=8). Dose escalation only occurred after review of safety and tolerability data from previous dose levels (n=8/cohort; 2-placebo & 6-IIIa). Dosing of the T2DM cohort was initiated only after the equivalent dose had been administered to NHV and safety data had been reviewed. All subjects were administered IIIa in the morning after an overnight fast with the exception of the NHV in the 40 mg cohort. NHV subjects in the 40 mg cohort initially received IIIa in a fasted state. Following a 3 week washout period, IIIa was readministered after breakfast at 40 mg to determine the effects of food consumption on pharmacokinetics.
(§2) This was a single center, randomized, double-blind, placebo-controlled single ascending dose study in both normal healthy volunteers (NHV) (n=48) and subjects with type 2 diabetes mellitus (T2DM) (n=8). All subjects were administered Formula IIIa as a solution formulated with Captisol® after an overnight fast with the exception of the NHV in the 40 mg cohort. The NHV 40 mg cohort initially received Formula IIIa in a fasted state. Following a washout period, subjects received 40 mg Formula IIIa after breakfast to explore the effects of food consumption on pharmacokinetics.
Plasma levels of Formula IIIa were measured by validated LC-MS/MS method. Formula IIIa was well absorbed after oral administration with peak plasma concentrations reached approximately 5-8 hours post dose. Consistent with preclinical predictions, clearance was slow and Formula IIIa was not detected in the urine.

[2] = Solubility in water, buffers, simulated fluids and Captisol; type: physicochemical; conditions: thermodynamic from solid; for solubility: aqueous with cosolvent or surfactant or cyclodextrin, ambient conditions, UV after 2-3day equilibration; for solubility at 24 h: 25° C., HPLC after 24-hour equilibration
Method: Solubility of a sodium salt of Formula IIIa (below) was determined in water and at various pH values and simulated intestinal fluids using HPLC and UV analysis with and without modified beta-cyclodextrin (Captisol®). Phase solubility was used to estimate the Captisol®: Formula IIIa binding constant. The influence of Captisol® on oral absorption was modelled as shown below. The effect of Captisol® on solution stability was determined by HPLC. Plasma levels of Formula IIIa were measured by LCMS/MS.

[3] = Single ascending dose study, safety and tolerability; type: in vivo, human; conditions: single oral doses 2 to 480 mg in NHV, 40 mg in T2DM subjects
Method: as §1, §2
In type 2 diabetes mellitus (T2DM), inappropriately elevated levels of glucagon exacerbate hyperglycemia and its associated complications. Not wishing to be bound to a particular theory, it has been observed that antagonism of glucagon action reduces blood glucose levels and hemoglobin A1c in patients with T2DM. The novel, selective, orally bioavailable glucagon receptor antagonist, Formula IIIa (below), was investigated regarding its pharmacokinetics (PK), safety, and pharmacodynamics (PD) in a first-in-human, ascending, single-dose, double blind, placebo-controlled study in normal healthy (NH) and T2DM subjects (NCT01919684).

T1 sequence (P47871 26-477): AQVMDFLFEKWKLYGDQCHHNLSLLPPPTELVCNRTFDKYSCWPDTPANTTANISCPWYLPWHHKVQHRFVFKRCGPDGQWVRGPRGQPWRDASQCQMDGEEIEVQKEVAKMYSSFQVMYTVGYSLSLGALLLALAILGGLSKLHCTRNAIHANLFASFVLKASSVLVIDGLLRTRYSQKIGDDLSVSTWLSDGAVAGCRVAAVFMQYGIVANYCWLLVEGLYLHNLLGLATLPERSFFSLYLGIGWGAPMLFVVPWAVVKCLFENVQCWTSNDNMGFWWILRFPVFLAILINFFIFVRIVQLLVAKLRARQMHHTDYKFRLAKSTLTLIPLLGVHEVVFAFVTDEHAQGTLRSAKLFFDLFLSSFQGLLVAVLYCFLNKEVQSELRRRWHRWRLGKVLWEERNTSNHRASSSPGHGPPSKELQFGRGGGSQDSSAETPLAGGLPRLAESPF

Row | IC50 (human glucagon receptor) | plasma exposure versus dose [1] | solubility ([2]; 15% w/v Captisol) | solubility ([2]; 35% w/v Captisol) | solubility at 24 h ([2]; simulated gastric fluid, 0.01N HCL) | solubility at 24 h ([2]; simulated gastric fluid, 0.1N HCL) | solubility at 24 h ([2]; Fasted state simulated intestinal fluid (FaSSIF)) | solubility at 24 h ([2]; Fed state simulated intestinal fluid (FeSSIF)) | solubility at 24 h ([2]; Simulated gastric fluid (SGF)) | solubility at 24 h ([2]; Water) | Compound | tolerability [3]
1 | 9 nM |  |  |  |  |  |  |  |  |  | Cc1cc(Cl)ccc1-c1ccc(NC(=O)C(Cc2ccc(C(=O)NCCS(=O)(=O)O)cc2)c2ccc(C3CCC(C(C)(C)C)CC3)cc2)cc1 (stereo not drawn) | 
2 | 15 nM |  |  |  |  |  |  |  |  |  | Cc1cc(C(F)(F)F)ccc1-c1ccc(NC(=O)C(Cc2ccc(C(=O)NCCS(=O)(=O)O)cc2)c2ccc(C3=CCC(C)(C)CC3)cc2)cc1 (racemic) | 
3 |  | dose dependent increases | 11530 ± 40 µg/mL | 32900 ± 440 µg/mL | 70 µg/mL | 60 µg/mL | 210 µg/mL | 6540 ± 190 µg/mL | 40 ± 10 µg/mL | 210 ± 10 µg/mL | Cc1cc(C)c(C2C=CC(NC(=O)[C@H](Cc3ccc(C(=O)NCCS(=O)(=O)O)cc3)c3ccc(-c4ccc(C(C)(C)C)cc4)cc3)=CC2)c(C)c1 (stereo partly drawn) [Formula IIIa sodium salt] | well tolerated
